Laboratory results: the supplement of paper PMC6045584

These test systems were tested with CS(=O)(=O)CCNCc1ccc(-c2ccc3ncnc(Nc4ccc(OCc5cccc(F)c5)c(Cl)c4)c3c2)o1 [LAPATINIB] (assay: area under dose-response curve of surviving fraction (unscaled, Aref=0) (surviving fraction x log10(nM)); higher = more resistant). Conditions: exposure time: 5 days; dose range 0.5-1000 nM.
Procedure, shortened: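 Each tumour cell line was screened three times in 384-well plates, receiving eight inhibitor concentrations from 0.5 to 1000 nM for five days. CellTiter-Glo luminescence gave viability, normalised to DMSO-only wells. Using the drc R package, surviving fractions were fitted with 3-parameter logistic dose-response curves, and the unscaled activity area over log10 dose (Aref = 0) was taken as the area under the curve.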

**Q.** For 22RV1 PROSTATE, which “area under dose-response curve” value is on record?
**A.** 3.42

**Q.** With 93VU HEADNECK as the test system, how does the “area under dose-response curve” value read?
**A.** 2.8

**Q.** A549 LUNG was tested. Which “area under dose-response curve” value did it give?
**A.** 3.47

**Q.** ASKA SYNOVIAL was tested. Which “area under dose-response curve” value did it give?
**A.** 3.82

**Q.** How did the “area under dose-response curve” value turn out when BT20 BREAST was run?
**A.** 3.84

**Q.** How did the “area under dose-response curve” value turn out when BT549 BREAST was run?
**A.** 3.45

**Q.** How did the “area under dose-response curve” value turn out when C33A CERVIX was run?
**A.** 2.92

**Q.** For CAL51 BREAST, which “area under dose-response curve” value is on record?
**A.** 3.37

**Q.** For CAL72 BONE, which “area under dose-response curve” value is on record?
**A.** 3.63

**Q.** CAL120 BREAST was tested. Which “area under dose-response curve” value did it give?
**A.** 3.34

**Q.** For CASKI CERVIX, which “area under dose-response curve” value is on record?
**A.** 2.48

**Q.** For CME SYNOVIAL, which “area under dose-response curve” value is on record?
**A.** 4.25

**Q.** COLO320DM LARGE INTESTINE was tested. Which “area under dose-response curve” value did it give?
**A.** 3.66

**Q.** For DU4475 BREAST, which “area under dose-response curve” value is on record?
**A.** 3.33

**Q.** For H23 LUNG, which “area under dose-response curve” value is on record?
**A.** 2.77

**Q.** HCC78 LUNG was tested. Which “area under dose-response curve” value did it give?
**A.** 2.99

**Q.** HCC1395 BREAST was tested. Which “area under dose-response curve” value did it give?
**A.** 3.36

**Q.** Which “area under dose-response curve” value does the source give for HCC1806 BREAST here?
**A.** 3.15

**Q.** HCC1954 BREAST was tested. Which “area under dose-response curve” value did it give?
**A.** 2.76

**Q.** HELA CERVIX was tested. Which “area under dose-response curve” value did it give?
**A.** 3.7

**Q.** With HOS BONE as the test system, how does the “area under dose-response curve” value read?
**A.** 3.45

**Q.** Which “area under dose-response curve” value does the source give for HOSMNG BONE here?
**A.** 3.02

**Q.** Which “area under dose-response curve” value does the source give for HSSYII SYNOVIAL here?
**A.** 3.2

**Q.** How did the “area under dose-response curve” value turn out when HT1080 SOFT TISSUE was run?
**A.** 3.4

**Q.** With HU09 BONE as the test system, how does the “area under dose-response curve” value read?
**A.** 3.23

**Q.** For HUO3N1 BONE, which “area under dose-response curve” value is on record?
**A.** 3.26

**Q.** Which “area under dose-response curve” value does the source give for JIMT1 BREAST here?
**A.** 3.27

**Q.** For “JURKAT HAEMATOPOIETIC AND LYMPHOID TISSUE”, which “area under dose-response curve” value is on record?
**A.** 3.21

**Q.** KPD BONE was tested. Which “area under dose-response curve” value did it give?
**A.** 3.44

**Q.** With LM7 BONE as the test system, how does the “area under dose-response curve” value read?
**A.** 3.39

**Q.** Which “area under dose-response curve” value does the source give for LNCAP PROSTATE here?
**A.** 3.12

**Q.** MCF7 BREAST was tested. Which “area under dose-response curve” value did it give?
**A.** 3.11

**Q.** MDAMB134 BREAST was tested. Which “area under dose-response curve” value did it give?
**A.** 3.79

**Q.** With MDAMB157 BREAST as the test system, how does the “area under dose-response curve” value read?
**A.** 3.27

**Q.** With MDAMB231 BREAST as the test system, how does the “area under dose-response curve” value read?
**A.** 3.27

**Q.** For MDAMB361 BREAST, which “area under dose-response curve” value is on record?
**A.** 2.68

**Q.** For MDAMB436 BREAST, which “area under dose-response curve” value is on record?
**A.** 3.11

**Q.** For MDAMB453 BREAST, which “area under dose-response curve” value is on record?
**A.** 3.21

**Q.** Which “area under dose-response curve” value does the source give for MFM223 BREAST here?
**A.** 3.48

**Q.** Which “area under dose-response curve” value does the source give for MG63 BONE here?
**A.** 3.5

**Q.** For MHM BONE, which “area under dose-response curve” value is on record?
**A.** 3.38

**Q.** With NCIH441 LUNG as the test system, how does the “area under dose-response curve” value read?
**A.** 3.58

**Q.** For NOS1 BONE, which “area under dose-response curve” value is on record?
**A.** 3.54

**Q.** For NY BONE, which “area under dose-response curve” value is on record?
**A.** 3.43

**Q.** OS25HAL BONE was tested. Which “area under dose-response curve” value did it give?
**A.** 3.47

**Q.** How did the “area under dose-response curve” value turn out when OSHN BONE was run?
**A.** 3.55

**Q.** PCI30 HEADNECK was tested. Which “area under dose-response curve” value did it give?
**A.** 3.52

**Q.** RDES SOFT TISSUE was tested. Which “area under dose-response curve” value did it give?
**A.** 4.08

**Q.** How did the “area under dose-response curve” value turn out when SAOS2 BONE was run?
**A.** 3.95

**Q.** SCC003 HEADNECK was tested. Which “area under dose-response curve” value did it give?
**A.** 3.11

**Q.** How did the “area under dose-response curve” value turn out when SCC36 HEADNECK was run?
**A.** 2.91

**Q.** Which “area under dose-response curve” value does the source give for SCC90 HEADNECK here?
**A.** 2.81

**Q.** Which “area under dose-response curve” value does the source give for SG32 HEADNECK here?
**A.** 3.6

**Q.** SG43 HEADNECK was tested. Which “area under dose-response curve” value did it give?
**A.** 2.24

**Q.** With SIHA CERVIX as the test system, how does the “area under dose-response curve” value read?
**A.** 3.53

**Q.** SJSA1 BONE was tested. Which “area under dose-response curve” value did it give?
**A.** 5.27

**Q.** With SKBR3 BREAST as the test system, how does the “area under dose-response curve” value read?
**A.** 2.38

**Q.** For SUM44 BREAST, which “area under dose-response curve” value is on record?
**A.** 3.72

**Q.** How did the “area under dose-response curve” value turn out when SUM149 BREAST was run?
**A.** 2.56

**Q.** SUM159 BREAST was tested. Which “area under dose-response curve” value did it give?
**A.** 3.55

**Q.** With SYO1 SYNOVIAL as the test system, how does the “area under dose-response curve” value read?
**A.** 3.2

**Q.** With T47D BREAST as the test system, how does the “area under dose-response curve” value read?
**A.** 3.39

**Q.** Which “area under dose-response curve” value does the source give for VCAP PROSTATE here?
**A.** 3.07

**Q.** For VP229 BREAST, which “area under dose-response curve” value is on record?
**A.** 3.02

**Q.** How did the “area under dose-response curve” value turn out when YAMATO SYNOVIAL was run?
**A.** 4.08

**Q.** With ZR751 BREAST as the test system, how does the “area under dose-response curve” value read?
**A.** 2.92
